Reference: US9645136B2, “Methods of treating a meiotic kinesin-associated disease” (DANA-FARBER CANCER INSTITUTE, INC., priority 2008, dated 2017)

Key:
[1] = system: S2 cells; assay: Centrosome clustering defects in S2 cells after short drug treatment; type: cell-based, Drosophila
Description: In addition to genes that likely contribute to the bundling and organization of spindle MTs, unexpectedly, genes involved in the organization and regulation of the actin cytoskeleton, such as the formin Form3/INF2 were also identified (Chhabra, E. S. and Higgs, H. N. (2006) J Biol Chem 281:26754-26767). […] Experiments using a brief (2 hr) treatment with small molecules that disrupt the actin cytoskeleton similarly induce multipolar mitoses.
More specifically, cells were treated with Latrunculin (40 μM LatA), Cytochalasin D (20 μM) for 2 hours and the percentage of centrosome clustering defects was determined.
Next, it was determined if cortical contraction is required for centrosome clustering. Cells were exposed, for 2 hours, to soluble tetravalent lectin concanavalin A (Con-A), which crosslinks the plasma membrane and thus globally blocks cortical contraction (Canman, J. C. and Bement, W. M. (1997) J Cell Sci 110 (Pt 16):1907-1917). The percentage of centrosome clustering defects after Con-A treatment was determined.
Low concentrations of calyculin A (CA) inhibit the myosin light chain phosphatase (MLCP) and promote myosin II activation without altering its distribution (Gupton, S. M. and Waterman-Storer, C. M. (2006) Cell 125:1361-1374). […] Thus, in cells with extra centrosomes, actin and actin-based contractility influence whether mitosis is bipolar or multipolar.
It was also determined whether the actin and intrinsic spindle forces act cooperatively to prevent multipolar mitoses. […] To farther evaluate this idea, time-lapse spinning disc microscopy was used to define the trajectory of centrosome movement in Ned-depleted S2 cells. […] Moreover, the bulk of the centrosome movement was directed away from the spindle and towards the cell cortex. […] Thus, cortical forces collaborate with intrinsic spindle bundling forces to organize multiple centrosomes.

[2] = system: MDA-231 cells; assay: Multipolar spindles in MDA-231 cells; type: cell-based
Description: The parallel between Drosophila and mammalian cells extended to the genetic requirements for centrosome clustering. To examine this further, siRNA experiments were performed with mammalian HSET (Ned homolog) and Myo10 genes, as follows. Mixed pools (ON-TARGETplus and SMART pools) of 4 different oligos of siRNAs against human HSET, human Myo10 and mouse Myo10 were purchased from Dharmacon, siRNA against mouse HSET was purchased from Ambion. Non-specific scrambled siRNA was used as control (Ambion). The oligo sequence of the siRNAs are set forth below in Table 2:
Cells were transfected with Lipofectamine RNAiMAX (Invitrogen) with a final siRNA concentration of 50 nM according to the manufacturer's instructions. Cells were analyzed/harvested three days after transfection (unless specified otherwise). FIGS. 5 and 6 show the results of Western blots showing the depletion of HSET (FIG. 5) or Myo10 (FIG. 6) after three days of siRNA in MDA-231 and MCF-7 cells. FIG. 7 is a bar graph showing the percentage of cells with multipolar spindles in MCF-7 or MDA-231 cells upon treatment with siRNA of HSET or Myo10. […] As in S2 cells, Myo10-induced multipolarity is not a consequence of cytokinesis failure.
Several lines of evidence support this hypothesis. First, live-cell imaging was used to correlate interphase cell shape with the pattern of cell division during mitosis. MDA-231 (breast cancer cells containing extra centrosomes) that assumed an elongated or polarized shape in interphase, almost uniformly underwent bipolar divisions. […] Second, in tetraploid BSC-1 cells, whose thick RFs are readily visualized by DIC imaging, it was noted that a strong correlation between the positioning of the RFs and whether cells underwent a bipolar (bipolar distribution of RFs) or multipolar division (isotropic distribution of RFs). Third, RFs accumulate specific proteins, such as the ERM protein ezrin, which are implicated in cortical heterogeneity and thus local force generation on astral MTs. […]

[3] = system: MDA-231, MMEDX 4N and N1E-115; assay: Multipolar spindles after transient actin or astral MT disruption, cell lines with multiple centrosomes; type: cell-based
Description: (§1) To determine the effect of transient actin disruption in mammalian cells, the cell lines MCF-7, MDA-231, MMEDX 4N and N1E-115 were treated with DMSO, LatA (5 μM) or Dihydrocytochalasin B (DCB) (10 μM) for 2 hours. The MCF-7 cell line contains 2 centrosomes whereas the other cell lines contain greater than 2 centrosomes. […] These multipolar spindles result from declustering of extra centrosomes and were not due to the splitting/fragmentation of centrioles. Actin presumably influences centrosome positioning via forces on astral MTs.

[4] = system: S2 cells; assay: Live cell imaging of centrosome clustering in S2 cells; type: cell-based, Drosophila
Description: Relative to controls (14.7±6.4 min), there was a 1.5 fold delay in centrosome clustering in 13/15 LatA-treated cells (22.1±12.3 min). […] The cell cycle delay induced by LatA treatment is likely due to activation of the SAC, as evidenced by prominent labeling of kinetochores with BubR1 in LatA-treated cells.

[5] = system: MCF-7; assay: Multipolar spindles in cells with normal centrosome number; type: cell-based; details: cells plated on FN 30 μg/ml
Description: as §1
Cells were transfected with Lipofectamine RNAiMAX (Invitrogen) with a final siRNA concentration of 50 nM according to the manufacturer's instructions. Cells were analyzed/harvested three days after transfection (unless specified otherwise). FIGS. 5 and 6 show the results of Western blots showing the depletion of HSET (FIG. 5) or Myo10 (FIG. 6) after three days of siRNA in MDA-231 and MCF-7 cells. […]
Several lines of evidence support this hypothesis. […] Second, in tetraploid BSC-1 cells, whose thick RFs are readily visualized by DIC imaging, it was noted that a strong correlation between the positioning of the RFs and whether cells underwent a bipolar (bipolar distribution of RFs) or multipolar division (isotropic distribution of RFs). […]

[6] = 2 hours, LatA 5 μM, DCB 10 μM, vs DMSO

Compound: COC[C@@H]([C@H](O)[C@H](O)C(=O)NCC[C@H](C)c1nc(/C=C/C[C@@H]2O[C@]3(C[C@@H](O)[C@@H]2C)O[C@H]([C@H](C[C@H](O)[C@H](C)[C@H](O)[C@H](C)/C=C(C)/C(C)=C/C=C/C(C)=C\C#N)OC)[C@H](OP(=O)(O)O)C3(C)C)co1)N(C)C [CA, calyculin A]
- centrosome clustering defect induced by Ned RNAi ([1]; CA treatment of Ned RNAi cells): partially rescued
- centrosome clustering defects ([1]; wild type S2 cells, low concentration CA, 15% without): 9%
- FN-induced increase of multipolar spindles ([2]; CA added to cells plated on FN 30 μg/ml): reversed

Compound: C=C1[C@@H](C)[C@H]2[C@H](Cc3ccccc3)NC(=O)[C@]23OC(=O)CC[C@H](O)CCC[C@@H](C)C/C=C/[C@H]3[C@@H]1O [Dihydrocytochalasin B]
- frequency of multipolar spindles [3, 6]: significant increase

Compound: C/C1=C/C(=O)O[C@@H]2C[C@@H](CC[C@H](C)/C=C\C=C\CC1)O[C@@](O)([C@@H]1CSC(=O)N1)C2 [LatA, Latrunculin]
- delay in centrosome clustering relative to controls ([4]; 13/15 LatA-treated cells): 1.5 fold
- time of centrosome clustering ([4]; 13/15 LatA-treated cells, controls 14.7±6.4 min): 22.1 ± 12.3 min
- cells that completely failed to cluster extra centrosomes ([4]; LatA-treated cells): 2/15
- spindle multipolarity ([1]; LatA treatment in Ned or Bj1/RCC1-depleted cells): combinatorial increase
- frequency of multipolar spindles [3, 6]: significant increase

Compound: COC(=O)Nc1nc2ccc(C(=O)c3cccs3)cc2[nH]1 [nocodazole]
- frequency of multipolar spindles ([3]; low dose nocodazole, cells with extra centrosomes): increased the frequency of multipolar spindles

Compound: CC(C)(C)n1nc(-c2ccc(Cl)cc2)c2c(N)ncnc21 [PP2]
- multipolar spindles ([2]; src kinase inhibitor PP2): induced multipolar spindles

Compound: concanavalin A [Con-A]
- centrosome clustering defects / multipolar mitoses ([1]; 2 hours treatment): induced centrosome clustering defects

Compound: fibronectin [FN]
- frequency of multipolar spindles [5]: not in MCF-7 cells
- frequency of multipolar spindles ([2]; cells plated on FN 30 μg/ml): increased the frequency of multipolar spindles
